Literature values as cited in patent US8575172B2 (Zysis Limited, priority 2006, dated 2013).
Where two headings read alike, the source gives them in different places.

Key:
5-HT1A receptor = biological target: T1, 5-HT1A receptor (Homo sapiens, UniProt P08908)
T1 sequence (P08908 1-422): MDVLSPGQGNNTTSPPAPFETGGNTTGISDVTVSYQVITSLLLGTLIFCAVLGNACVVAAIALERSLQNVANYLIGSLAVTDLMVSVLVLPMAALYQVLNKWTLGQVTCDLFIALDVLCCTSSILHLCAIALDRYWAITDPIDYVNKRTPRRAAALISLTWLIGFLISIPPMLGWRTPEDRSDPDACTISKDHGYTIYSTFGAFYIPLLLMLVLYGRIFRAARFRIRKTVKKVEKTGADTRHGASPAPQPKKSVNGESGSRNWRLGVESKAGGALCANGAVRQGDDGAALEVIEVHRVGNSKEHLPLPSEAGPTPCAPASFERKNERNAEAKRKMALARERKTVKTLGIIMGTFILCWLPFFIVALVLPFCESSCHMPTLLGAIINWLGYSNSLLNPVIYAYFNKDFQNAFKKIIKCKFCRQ

5-HT2A receptor = 5-HT2A receptor (Homo sapiens, UniProt P28223)
Sequence of 5-HT2A receptor (P28223 whole entry): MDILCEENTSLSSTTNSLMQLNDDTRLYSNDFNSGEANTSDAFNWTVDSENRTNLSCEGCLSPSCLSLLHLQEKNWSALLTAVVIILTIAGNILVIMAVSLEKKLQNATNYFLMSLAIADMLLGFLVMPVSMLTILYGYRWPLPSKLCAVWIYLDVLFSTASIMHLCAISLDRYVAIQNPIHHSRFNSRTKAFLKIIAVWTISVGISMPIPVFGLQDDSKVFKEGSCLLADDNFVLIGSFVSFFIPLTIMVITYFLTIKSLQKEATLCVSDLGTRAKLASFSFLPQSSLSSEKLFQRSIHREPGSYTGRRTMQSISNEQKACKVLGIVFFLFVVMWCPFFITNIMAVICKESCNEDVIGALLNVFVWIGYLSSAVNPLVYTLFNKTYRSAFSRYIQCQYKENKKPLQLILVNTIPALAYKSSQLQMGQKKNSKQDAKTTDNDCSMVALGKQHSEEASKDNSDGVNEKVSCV

[1] = test system: alpha adrenergic receptors
[2] = test system: cholinergic muscarinic receptors
CYP2D6 = CYP2D6 (Homo sapiens, UniProt P10635)
Sequence of CYP2D6 (P10635 whole entry): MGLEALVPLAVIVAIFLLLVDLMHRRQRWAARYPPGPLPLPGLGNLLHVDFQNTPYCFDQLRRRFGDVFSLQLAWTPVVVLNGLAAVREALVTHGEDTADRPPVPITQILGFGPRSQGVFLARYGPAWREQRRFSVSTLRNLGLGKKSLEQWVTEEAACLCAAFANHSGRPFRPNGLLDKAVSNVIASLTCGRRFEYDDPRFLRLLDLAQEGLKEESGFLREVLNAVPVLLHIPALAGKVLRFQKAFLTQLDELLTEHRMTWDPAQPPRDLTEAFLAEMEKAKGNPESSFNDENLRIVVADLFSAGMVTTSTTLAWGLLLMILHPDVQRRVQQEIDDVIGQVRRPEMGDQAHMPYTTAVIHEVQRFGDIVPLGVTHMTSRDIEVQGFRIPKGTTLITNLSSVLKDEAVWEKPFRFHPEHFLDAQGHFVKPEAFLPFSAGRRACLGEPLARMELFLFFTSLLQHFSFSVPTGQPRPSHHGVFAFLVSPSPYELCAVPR

[3] = single oral dose
[4] = CYP2D6 poor vs extensive metabolizers

In the case of `O=C1CCc2ccc(OCCCCN3CCN(c4cccc(Cl)c4Cl)CC3)cc2N1` [aripiprazole, 7-[4-[4-(2,3-dichlorophenyl)piperazin-1-yl]butoxy]-3,4-dihydro-1H-quinolin-2-one], the mean elimination half-life (CYP2D6 extensive metabolizers (EMs)) is listed as “about 75 hours”, the mean elimination half-life (CYP2D6 poor metabolizers (PMs)) is listed as ~146 h and the “increase in aripiprazole exposure in PMs compared to EMs” value [4] is listed as ~80%. The absorption (administered orally as the solution) was “well absorbed”, the absorption (after administration of the IR tablet) was “well absorbed” and the “higher exposure to the total active moieties in PMs compared to EMs” value (from a given dose of aripiprazole) was ~60%. For the same compound, the mean elimination half-life (in vivo) was “about 75 hours”, the “pharmacokinetics at steady state” value (in vivo) was “dose-proportional” and the “activity at the 5-HT1A receptor” value (5-HT1A receptor) was “partial agonist”. The “profile at the 5-HT2A receptor” value (5-HT2A receptor) was “antagonist”, the “affinity for histamine receptors” value (histamine receptors) was “moderate affinity” and the “affinity for alpha adrenergic receptors” value [1] was “moderate affinity”. For the same compound, the “affinity for cholinergic muscarinic receptors” value [2] was “no appreciable affinity”, the “effect on the CYP2D6 pathway” value (CYP2D6) was “does not inhibit or induce” and the “oral dose recovered unchanged in the feces” value [3] was “approximately 18%”. For the same compound, the “unchanged aripiprazole excreted in the urine” value [3] was “Less than 1%”, the “administered radioactivity recovered in the feces” value ([3]; [14C]-labeled) was ~55% and the “administered radioactivity recovered in the urine” value ([3]; [14C]-labeled) was “approximately 25%”.

In the case of `O=c1ccc2ccc(OCCCCN3CCN(c4cccc(Cl)c4Cl)CC3)cc2[nH]1` [dehydro-aripiprazole], the “decrease in exposure to the active metabolite in PMs compared to EMs” value [4] is listed as ~30%, the “share of aripiprazole AUC in plasma” value (at steady state) is listed as “about 40%” and the mean elimination half-life (in vivo) is listed as ~94 h. The “share of the parent drug exposure in plasma” value (in vivo) was 40%.
